# Test results: ChEMBL document CHEMBL4118101 (Bioorg Med Chem, 2018)
# Activity calls are given as the source filed them. The rule behind the calls is not given here.
# Columns and labels:
# [1] = Hemolytic activity in mouse RBC at 62.5 ug/ml after 1 hr relative to control; type: ADME, cell-based, Erythrocyte; details: mouse red blood cells (erythrocytes), read-out: Activity
# Cryptococcus neoformans [2] = test: Antifungal activity against Cryptococcus neoformans isolate CN2 measured after 48 hrs by CLSI M27-A3 protocol based method; type: functional; details: Cryptococcus neoformans, isolate CN2, 48 h; read-out: MIC
# Candida albicans [3] = test: Antifungal activity against Candida albicans ATCC 10231 measured after 48 hrs by CLSI M27-A3 protocol based method; type: functional; details: ATCC 10231, 48 h
# Candida albicans [4] = test: Antifungal activity against Candida albicans ATCC 64124 measured after 48 hrs by CLSI M27-A3 protocol based method; type: functional; details: Candida albicans, ATCC 64124, 48 h; read-out: MIC
# Candida albicans [5] = test: Antifungal activity against fluconazole/ITC-susceptible Candida albicans ATCC MYA-2876 measured after 48 hrs by CLSI M27-A3 protocol based method; type: functional; details: Candida albicans, ATCC MYA-2876, 48 h
# Candida albicans [6] = test: Antifungal activity against fluconazole/ITC-resistant Candida albicans ATCC 90819 measured after 48 hrs by CLSI M27-A3 protocol based method; type: functional; details: Candida albicans, ATCC 90819, 48 h; read-out: MIC
# Candida albicans [7] = test: Antifungal activity against fluconazole/ITC-susceptible Candida albicans ATCC MYA-2310 measured after 48 hrs by CLSI M27-A3 protocol based method; type: functional; details: Candida albicans, ATCC MYA-2310, 48 h; read-out: MIC
# Candida albicans [8] = test: Antifungal activity against fluconazole/ITC-resistant Candida albicans ATCC MYA-1237 measured after 48 hrs by CLSI M27-A3 protocol based method; type: functional; details: Candida albicans, ATCC MYA-1237, 48 h; read-out: MIC
# Candida albicans [9] = test: Antifungal activity against fluconazole/ITC-resistant Candida albicans ATCC MYA-1003 measured after 48 hrs by CLSI M27-A3 protocol based method; type: functional; details: Candida albicans, ATCC MYA-1003, 48 h; read-out: MIC
# Nakaseomyces glabratus [10] = test: Antifungal activity against Candida glabrata ATCC 2001 measured after 48 hrs by CLSI M27-A3 protocol based method; type: functional, CBS 138; details: Nakaseomyces glabratus, CBS 138, 48 h; read-out: MIC
# Pichia kudriavzevii = test: Antifungal activity against Candida krusei ATCC 6258 measured after 48 hrs by CLSI M27-A3 protocol based method; type: functional; details: Pichia kudriavzevii, ATCC 6258, 48 h
# Candida parapsilosis [11] = test: Antifungal activity against Candida parapsilosis ATCC 22019 measured after 48 hrs by CLSI M27-A3 protocol based method; type: functional; details: Lodderomyces parapsilosis, ATCC 22019, 48 h
# Aspergillus nidulans [12] = test: Antifungal activity against Aspergillus nidulans ATCC 38163 measured after 48 hrs by CLSI M38-A2 protocol based method; type: functional; details: ATCC 38163, 48 h
# Aspergillus flavus = test: Antifungal activity against Aspergillus flavus ATCC MYA-3631 measured after 48 hrs by CLSI M38-A2 protocol based method; type: functional; details: ATCC MYA-3631, 48 h
# Aspergillus terreus = test: Antifungal activity against Aspergillus terreus ATCC MYA-3633 measured after 48 hrs by CLSI M38-A2 protocol based method; type: functional; details: ATCC MYA-3633, 48 h
# Nakaseomyces glabratus [13] = test: Antifungal activity against Candida glabrata isolate CG1 measured after 48 hrs by CLSI M27-A3 protocol based method; type: functional; details: Nakaseomyces glabratus, 48 h; read-out: MIC
# Nakaseomyces glabratus [14] = test: Antifungal activity against Candida glabrata isolate CG2 measured after 48 hrs by CLSI M27-A3 protocol based method; type: functional; details: Nakaseomyces glabratus, isolate CG2, 48 h; read-out: MIC
# Nakaseomyces glabratus [15] = test: Antifungal activity against Candida glabrata isolate CG3 measured after 48 hrs by CLSI M27-A3 protocol based method; type: functional; details: Nakaseomyces glabratus, 48 h; read-out: MIC
# Candida parapsilosis [16] = test: Antifungal activity against Candida parapsilosis isolate CP1 measured after 48 hrs by CLSI M27-A3 protocol based method; type: functional; details: Lodderomyces parapsilosis, isolate CP1, 48 h
# Candida parapsilosis [17] = test: Antifungal activity against Candida parapsilosis isolate CP2 measured after 48 hrs by CLSI M27-A3 protocol based method; type: functional; details: Lodderomyces parapsilosis, isolate CP2, 48 h
# Cryptococcus neoformans [18] = test: Antifungal activity against Cryptococcus neoformans isolate CN1 measured after 48 hrs by CLSI M27-A3 protocol based method; type: functional; details: isolate CN1, 48 h
# Cryptococcus neoformans [19] = test: Antifungal activity against Cryptococcus neoformans isolate CN3 measured after 48 hrs by CLSI M27-A3 protocol based method; type: functional; details: Cryptococcus neoformans, isolate CN3, 48 h; read-out: MIC
# Candida parapsilosis [20] = test: Antifungal activity against Candida parapsilosis isolate CP3 measured after 48 hrs by CLSI M27-A3 protocol based method; type: functional; details: Lodderomyces parapsilosis, isolate CP3, 48 h
# [21] = Hemolytic activity in mouse RBC at 0.48 ug/ml after 1 hr relative to control; type: ADME, cell-based, Erythrocyte; details: mouse red blood cells (erythrocytes), read-out: Activity
# [22] = Hemolytic activity in mouse RBC at […] ug/ml after 1 hr relative to control; type: ADME, cell-based, Erythrocyte; details: mouse red blood cells (erythrocytes), read-out: Activity
# [23] = Hemolytic activity in mouse RBC at 1.95 ug/ml after 1 hr relative to control; type: ADME, cell-based, Erythrocyte; details: mouse red blood cells (erythrocytes), at 1.95 µg/mL, read-out: Activity
# [24] = Hemolytic activity in mouse RBC at 3.9 ug/ml after 1 hr relative to control; type: ADME, cell-based, Erythrocyte; details: mouse red blood cells (erythrocytes), read-out: Activity
# [25] = Hemolytic activity in mouse RBC at 7.8 ug/ml after 1 hr relative to control; type: ADME, cell-based, Erythrocyte; details: mouse red blood cells (erythrocytes), read-out: Activity
# [26] = Hemolytic activity in mouse RBC at 31.3 ug/ml after 1 hr relative to control; type: ADME, cell-based, Erythrocyte; details: mouse red blood cells (erythrocytes), at 31.3 µg/mL, read-out: Activity
# HEK293 = test: Cytotoxicity against HEK293 cells at 7.8 ug/ml after 24 hrs by resazurin based assay; type: cell-based; details: human, hek293, 24 h
# BEAS-2B = test: Cytotoxicity against human BEAS2B cells up to 7.8 ug/ml after 24 hrs by resazurin based assay; type: cell-based
# A549 = test: Cytotoxicity against human A549 cells up to 7.8 ug/ml after 24 hrs by resazurin based assay; type: cell-based; details: a549, 24 h
# Candida albicans [27] = test: Antifungal activity against Candida albicans ATCC 10231 measured after 48 hrs in presence of 10% FBS by CLSI M27-A3 protocol based method; type: functional; details: Candida albicans, ATCC 10231, 48 h
# Candida parapsilosis [28] = test: Antifungal activity against Candida parapsilosis ATCC 22019 measured after 48 hrs in presence of 10% FBS by CLSI M27-A3 protocol based method; type: functional; details: Lodderomyces parapsilosis, ATCC 22019, 48 h
# Aspergillus nidulans [29] = test: Antifungal activity against Aspergillus nidulans ATCC 38163 measured after 48 hrs in presence of 10% FBS by CLSI M38-A2 protocol based method; type: functional; details: ATCC 38163, 48 h
# [30] = Cytotoxicity against HEK293 cells assessed as cell survival at 3.9 ug/ml after 24 hrs by resazurin based assay relative to control; details: human, read-out: Survival
# Candida albicans [31] = test: Induction of membrane permeabilization in Candida albicans ATCC 10231 assessed as membrane disruption at 4 times MIC after 1 hr by propidium iodide staining based fluorescence microscopy; type: functional, organism-based
# Candida albicans [32] = details: ATCC 10231, 0.975 ug/ml
# Candida albicans [33] = details: ATCC 10231, 0.975 ug/ml; remark: listed apart in the source
# Candida albicans [34] = details: ATCC 10231, 0.975 ug/ml; remark: listed apart in the source
# Candida albicans [35] = details: ATCC 10231, 0.975 ug/ml; remark: listed apart in the source
smiles,measurement,setting,value
CCCCCCCCCCCCCCCCNCC(O)(Cn1cncn1)c1ccc(F)cc1F (centres undefined),"hemolysis at 1 h, 62.5 ug/ml",[1],8%
same,MIC,Cryptococcus neoformans [2],1 µM
same,MIC,Candida albicans [3],> 65.4 µM
same,MIC,Candida albicans [4],> 65.4 µM
same,MIC,Candida albicans [5],65.4 µM
same,MIC,Candida albicans [6],65.4 µM
same,MIC,Candida albicans [7],8.1 to 65.4 µM
same,MIC,Candida albicans [8],> 65.4 µM
same,MIC,Candida albicans [9],> 65.4 µM
same,MIC,Nakaseomyces glabratus [10],2 to 65.4 µM
same,MIC,Pichia kudriavzevii,8.1 µM
same,MIC,Candida parapsilosis [11],1 µM
same,MIC,Aspergillus nidulans [12],8.1 µM
same,MIC,Aspergillus flavus,> 65.4 µM
same,MIC,Aspergillus terreus,> 65.4 µM
same,MIC,Nakaseomyces glabratus [13],4.1 µM
same,MIC,Nakaseomyces glabratus [14],2 µM
same,MIC,Nakaseomyces glabratus [15],16.3 µM
same,MIC,Candida parapsilosis [16],2 µM
same,MIC,Candida parapsilosis [17],1 µM
same,MIC,Cryptococcus neoformans [18],1 µM
same,MIC,Cryptococcus neoformans [19],1 µM
same,MIC,Candida parapsilosis [20],2 µM
same,"hemolysis at 1 h, 0.48 ug/ml",[21],4%
same,"hemolysis at 1 h, 0.975 ug/ml",[22],5%
same,"hemolysis at 1 h, 15.6 ug/ml",[22],4%
same,"hemolysis at 1 h, 1.95 ug/ml",[23],6%
same,"hemolysis at 1 h, 3.9 ug/ml",[24],3%
same,"hemolysis at 1 h, 7.8 ug/ml",[25],4%
same,"hemolysis at 1 h, 31.3 ug/ml",[26],4%
same,Activity,HEK293,Non-Toxic
same,Activity,BEAS-2B,Non-Toxic
same,Activity,A549,Non-Toxic
CCCCCCCCCCCCCCNCC(O)(Cn1cncn1)c1ccc(F)cc1F (centres undefined),"hemolysis at 1 h, 62.5 ug/ml",[1],77%
same,MIC,Cryptococcus neoformans [2],0.53 µM
same,MIC,Candida albicans [3],4.3 µM
same,MIC,Candida albicans [4],> 69.5 µM
same,MIC,Candida albicans [5],> 69.5 µM
same,MIC,Candida albicans [6],17.3 µM
same,MIC,Candida albicans [7],69.5 µM
same,MIC,Candida albicans [8],> 69.5 µM
same,MIC,Candida albicans [9],69.5 µM
same,MIC,Nakaseomyces glabratus [10],2.2 to 4.3 µM
same,MIC,Pichia kudriavzevii,8.7 µM
same,MIC,Candida parapsilosis [11],1.1 µM
same,MIC,Aspergillus nidulans [12],8.7 µM
same,MIC,Aspergillus flavus,> 69.5 µM
same,MIC,Aspergillus terreus,17.3 µM
same,MIC,Nakaseomyces glabratus [13],4.3 µM
same,MIC,Nakaseomyces glabratus [14],4.3 µM
same,MIC,Nakaseomyces glabratus [15],8.7 µM
same,MIC,Candida parapsilosis [16],1.1 µM
same,MIC,Candida parapsilosis [17],2.2 µM
same,MIC,Cryptococcus neoformans [18],0.27 µM
same,MIC,Cryptococcus neoformans [19],1.1 µM
same,MIC,Candida parapsilosis [20],1.1 µM
same,MIC,Candida albicans [27],7.8 mg/L
same,MIC,Candida parapsilosis [28],0.975 mg/L
same,MIC,Aspergillus nidulans [29],31.2 mg/L
same,"hemolysis at 1 h, 0.48 ug/ml",[21],2%
same,"hemolysis at 1 h, 0.975 ug/ml",[22],6%
same,"hemolysis at 1 h, 15.6 ug/ml",[22],29%
same,"hemolysis at 1 h, 1.95 ug/ml",[23],3%
same,"hemolysis at 1 h, 3.9 ug/ml",[24],10%
same,"hemolysis at 1 h, 7.8 ug/ml",[25],17%
same,"hemolysis at 1 h, 31.3 ug/ml",[26],< 50%
same,"viability at 24 h, 3.9 ug/ml",[30],> 50%
same,Activity,BEAS-2B,Non-Toxic
same,Activity,A549,Non-Toxic
same,Activity,Candida albicans [31],inactive
same,Activity,Candida albicans [32],36.4%
same,Activity,Candida albicans [33],15.6%
same,Activity,Candida albicans [34],1.16%
same,Activity,Candida albicans [35],8.33%
